Data as given in patent US9745257B2, “Phenyl-guanidine derivatives” (Universidad Nacional de Quilmes, priority 2011, dated 2017).
Where two headings read alike, the source gives them in different places. One block for each compound: values may come before it.

Key:
[1] = tested on: LN229 (human glioblastoma); assay: Proliferation assay (MTT), LN229 cells; format: cell-based; details: LN-229, 72 h, 10% FBS
Protocol: (§1) Cells were maintained in monolayer culture with the corresponding media, supplemented with 5% fetal bovine serum (FBS) previously inactivated with heat, 2 mM glutamine and […] gentamicine.
(§2) The cells were treated for 72 hours in the presence of FBS 10% with different doses of the compounds in 96 wells at a 2500 cell/well density. The cell growth was estimated by MTT test, for which to the cell monolayers was added MTT, incubated and resuspended in DMSO. Finally, the number of cells was estimated by measuring the absorbance values at 570 nm.
(§3) Compound (65) as a representative example of Rac1 inhibitor compounds according to the present invention was tested in cell proliferation assays performed with following cancer cell lines F3II (murine mammary carcinoma), 3LL (murine lung carcinoma), LN229 (human glioblastoma), MCF7 (human mammary carcinoma), H125 (human lung carcinoma), PC3 (human prostate adenocarcinoma) and MDA-MB-231 (human mammary carcinoma).
as §2, with “trated” for “treated”

Rac1 = biological target: T1, Rac1 (Homo sapiens, UniProt P63000); assay: Pull-Down assay of intracellular active Rac levels (Rac-GTP) in LN229 cells; format: cell-based; details: 10 μM, EGF 100 ng/ml, FIG. 3
T1 construct: endogenous in cells; host or cells: LN229 (human glioblastoma)
Protocol: This assay consists in the determination of inhibition power of the compounds of the invention over the intracellular active Rac1 levels (Rac-GTP). For determining the levels of Rac-GTP, the “Pull-Down” assay was used, which is based in the conformation bond of Rac-GTP to the p21 domain of PAK1 protein, which is the direct effector of Rac-GTP (Wanf H. et al.; J. Biol. Che. 2002, 277: 4541-4550).
LN229 cells (human glioblastoma) were seeded in 6-well cell culture plaques and were kept in absence of FBS for 48 hours (starvation). Afterwards, they were treated with compounds (25) and (65) and they were stimulated for 15 minutes with EGF (100 ng/ml), washed with phosphate buffered saline (PBS) at low temperature and lysated in a buffer containing 8 μg of the fusion protein GST-PBD, […] Tris-HCl, pH 7.5, […] DTT, 5 mM MgCl2, 150 mM NaCl, 0.5% NP-40, 5 mM β-glicerophosphate and protease inhibitors (5 μg/ml 4-(2-aminoethyl)bencenesulfonyl fluoride, 5 μg (ml leupeptin, 5 μg/ml aprotinin and 1 μg/ml pepstatin A). The lysates were centrifuged at 14,000×g (4° C., 10 min) and then incubated with Glutation-Agarose Beads (GAB, Amersham Pharmacia) previously fitted with GST-Pak at 4° C. for 1 hour. After washing, the GABs were boiled for 5 minutes in loading buffer. […] The total Rac levels were analyzed in a similar way from aliquots taken from the cell lysate.

[2] = tested on: F3II mammary carcinoma cells; assay: Antimetastatic effect, metastatic lung colonization by F3II cells in mice; format: in vivo; details: 25 mg/kg/day i.p., days 0 to 21, F3II cells i.v., BALB/c mice, FIG. 9
Protocol: Specific pathogen-free female BALB/c inbred mice from UNLP (Buenos Aires, Argentina), with an age of 8-10 weeks and a average weight of 20 g, were used. They were housed in plastic cages under standard conditions and had access to rodent chow and water ad libitum. On the designated day 0 of the experiment, F3II mammary carcinoma cells were injected into the lateral tail vein of unanesthetized mice at a concentration of 2×10^5 viable cells/0.3 ml DMEM/mice. At day 21, animals were sacrificed by cervical dislocation and necropsied. To investigate the presence of lung metastasis, lungs were removed, fixed in Bouin's solution and the number of surface nodules was determined under a dissecting microscope.
(§4) To study the effect of compound (25) on metastatic lung colonization, mice were injected i.p at daily doses of 25 mg/kg body weight from days 0 to 21.

[3] = tested on: F3II (murine mammary carcinoma); assay: Proliferation assay (MTT), F3II cells; format: cell-based; details: Mus musculus, 72 h, 10% FBS
Protocol: as §1, §2, §3

[4] = tested on: MDA-MB-231 (human mammary carcinoma); assay: Proliferation assay (MTT), MDA-MB-231 cells; format: cell-based; details: 72 h, 10% FBS
Protocol: as §1, §2, §3

[5] = Tolerability and animal weight in mice; format: in vivo; details: adult female BALB/c mice, 25 mg/kg/day i.p.
Protocol: as §4

[6] = tested on: LN229 human glioblastoma cells; assay: Trans-well migration assay; format: cell-based; details: 10 μM, 50 μM and 100 μM, 24 hours, FIG. 6
Protocol: Cell motility is a key process in the invasion and tumor metastasis processes and it is closely regulated by the Rho-GTPases family, particularly by Rac. This assay consists in the determination of the antimigration effect of compound (65) on LN229 human glioblastoma cells.
The cell migration in vitro was measured by the trans-well migration assay, wherein LN229 cells previously treated with different concentrations (10 μM, 50 μM and 100 μM) of compound (65) and serum deprived were placed on the upper layer of a cell permeable membrane of a trans-well plaque. Following an incubation perior of 24 hours, the cells migrated through the 8 μm pores of the membrane to the lower layer.

[7] = tested on: MCF7 (human mammary carcinoma); assay: Proliferation assay (MTT), MCF7 cells; format: cell-based; details: 72 h, 10% FBS, average of three experiments
Protocol: as §1, §2, §3

[8] = tested on: PC3 (human prostate adenocarcinoma); assay: Proliferation assay (MTT), PC3 cells; format: cell-based; details: PC-3, 72 h, 10% FBS, average of three experiments
Protocol: as §1, §2, §3

[9] = tested on: LN229 human glioblastoma cells; assay: Polymerization of actin filaments by immunofluorescence in LN229 cells; format: cell-based; details: LN229 starved 24 h, treated 1 hour, EGF stimulated, FIG. 5
Protocol: The effect of compound (65) over the polymerization of actin filaments was evaluated by immunofluorescence with conjugated faloidine with the fluorochrome AlexaFluor (Invitrogen). LN229 human glioblastoma cells were starvated for 24 hours, treated with compound (65) for 1 hour, and stimulated with EGF. […] An accurate sign of cellular boundaries is observed in all cells due to the cortical actin marking.

[10] = tested on: 3LL (murine lung carcinoma); assay: Proliferation assay (MTT), 3LL cells; format: cell-based; details: Mus musculus, 72 h, 10% FBS, average of three experiments
Protocol: as §1, §2, §3

[11] = tested on: H125 (human lung carcinoma); assay: Proliferation assay (MTT), H125 cells; format: cell-based; details: NCI-H125, 72 h, 10% FBS, average of three experiments
Protocol: as §1, §2, §3

LN229 cells = assay: Cell cycle effect by flow cytometry; format: cell-based, human
Protocol: The effect of compound (65) on the cell cycle was studied by flow citometry. It is known that Rac1 GTPase is related with transcription of molecules such as cyclin D1, which are required to progress from G1 phase to S phase. Inhibition of Rac1 induces cell arrest in G0-G1 phase.
LN229 cells synchronized in G0-G1 phase and stimulated for 24 hours with FBS were treated with compound (65).

Rac-Tiam complex = biological target: T2, Rac-Tiam complex (Homo sapiens, UniProt P63000); assay: Precipitation affinity of Tiam with recombinant GST-Rac (Western Blot anti Tiam1); format: binding; details: Western Blot anti Tiam1 vs. control, FIG. 2
T2 construct: GST
Protocol: Compounds (65) and (25) were tested in order to determine its inhibition power over the interaction Rac-Tiam. Thus, the precipitation affinity of Tiam with the recombinant protein GST-Rac was evaluated in presence of compound (65).

[12] = read-out: IC50 (μM) tested in LN229 cells (Table 2)

SMILES: N=C(Nc1ccccc1)Nc1ccccc1C(F)(F)F [(27), N-phenyl-N′-[2-(trifluoromethyl)phenyl]guanidine]
IC50 [1, 12]: 211 µM | melting point: 108 to 109 °C

SMILES: N=C(Nc1cccc([N+](=O)[O-])c1)Nc1ccccc1C(F)(F)F [(41), N-(3-nitrophenyl)-N′-[2-(trifluoromethyl)phenyl]guanidine]
IC50 [1, 12]: 88 µM

SMILES: Cc1cc(C)cc(NC(=N)Nc2ccccc2C(F)(F)F)c1 [Compound (25), N-(3,5-dimethylphenyl)-N′-[2-(trifluoromethyl)phenyl]guanidine]
Effect over the intracellular active Rac levels (Rac-GTP) (Rac1): inhibitory effect | IC50 [1, 12]: 73 µM | Reduction of the formation of metastatic lung colonies [2]: about 35% | IC50 ([3]; read-out: IC50 values, F3II (Table 3)): 36 µM | IC50 ([4]; read-out: IC50 values, MDA-MB-231 (Table 3)): 40 µM | Changes in animal weight compared to the control group [5]: no significant changes in animal weight | Tolerability [5]: well tolerated

Continued, in another order:

IC50 [1, 12]: 175 µM | melting point: 129 °C
SMILES: Cc1ccccc1NC(=N)Nc1ccccc1C(F)(F)F [(64), N-(2-methylphenyl)-N′-[2-(trifluoromethyl)phenyl]guanidine]

Effect over the intracellular active Rac levels (Rac-GTP) (Rac1): inhibitory effect | IC50 ([1]; average of three experiments, read-out: IC50 values, LN229): 73 µM | IC50 [7]: 44 µM | IC50 [8]: 138 µM | IC50 [10]: 68 µM | IC50 [11]: 127 µM | IC50 ([3]; average of three experiments, read-out: IC50 values, F3II): 61 µM | IC50 ([4]; average of three experiments, read-out: IC50 values, MDA-MB-231): 48 µM
SMILES: Cc1cc(C)nc(NC(=N)Nc2ccccc2C(F)(F)F)n1 [Compound (65), N-[4,6-bis(methyl)pyrimidin-2-yl]-N′-[2-(trifluoromethyl)phenyl]guanidine]
Cell migration [6]: significantly decreased the cell migration in a dose dependent manner | Intracellular fibrillar actin levels [9]: decreasing of intracellular fibrilar actin levels | Cell population in G0-G1 phase (LN229 cells; 50 μM, LN229 synchronized in G0-G1, stimulated 24 hours with FBS, controls 25%): 60% | Cell cycle arrest (LN229 cells; LN229 cells, FIG. 7): arrests tumoral cells in G0-G1 phase in a dose dependent manner | Effect over Rac-Tiam complex (Rac interaction with the activator) (Rac-Tiam complex): decrease of Rac interaction with the activator
